In one experiment the target is T1, BRD4-BD1 (44-164) (Homo sapiens, UniProt O60885).
T1 construct: BRD4-BD1 (44-164); made in house; host or cells: E. coli BL21-CodonPlus (DE3)
Briefly: Alphascreen binding assay BRD4-BD1 (BRD4 biochemical inhibitory activity). The conditions noted are these: read-out: Biochemical activity (IC50 μM) BRD4(1) H4. In outline: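 His-tagged human BRD4-BD1 (44-164), E. coli-expressed, incubated 1 h at room temperature with compound and biotinylated tetra-acetylated histone H4 (1-21) peptide in HEPES pH 7.5 buffer with NaCl, BSA, Triton X-100 and DTT. AlphaScreen nickel-chelate/streptavidin beads (7.5 μg/ml final) added, read after 30 min. pIC50 from four-parameter fit of control-normalized signal.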

Another experiment relates to MV-4-11. Briefly: Oncology cell growth assay MV-4-11 (CellTiter Glo, 72 hours). In kind it is cell-based. Conditions: Homo sapiens, MV4-11, 72 h; MV-4-11 cell growth inhibitory activity, 3d. In outline:
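Growth read by CellTiter Glo luminescence after 72 h compound exposure of MV-4-11 AML cells (MLL-AF4), using 8-point 1:3 series to 10 μM final in 0.2% DMSO. Data normalized to DMSO wells, four-parameter fit yields pIC50.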
A general note: ATP-based viability assays read luminescence as a measure of living cells.

Another experiment has as its system bromodomain. Briefly: Bromodomain cell assays of Example 40 (at least one of them). In kind it is cell-based. The conditions noted are these: in at least one of the bromodomain cell assays described in Example 40. The gist of the method: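 Growth inhibition: 3000 MV-4-11, MOLM-13, MM.1S or neuroblastoma cells/well got an 8-point 1:3 series from 10 μM top (0.2% DMSO) for 72 h, then CellTiter-Glo luminescence. Myc reporter: MV-4-11 with E-box firefly luciferase, 24 h exposure, One-Glo luminescence plus CellTiter-Fluo cell count. pIC50 from four-parameter fit.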

As for `CCCCC(c1cn(C)c2ncc(-c3c(C)noc3C)cc12)C1CCC(F)(F)CC1` (stereo not drawn) [P-0109, 4-[3-[1-(4,4-difluorocyclohexyl)pentyl]-1-methyl-pyrrolo[2,3-b]pyridin-5-yl]-3,5-dimethyl-isoxazole], the results for the half-inhibitory concentration (IC50) on BRD4-BD1 (44-164), in the experiment with MV-4-11 and with bromodomain were at most 1 µM, 1 to 10 µM and below 10 µM, respectively.
The corresponding values for `Cc1noc(C)c1-c1cnc2c(C#CCF)cn(S(=O)(=O)c3ccccc3)c2c1` [P-0157, 4-[1-(benzenesulfonyl)-3-(3-fluoroprop-1-ynyl)pyrrolo[3,2-b]pyridin-6-yl]-3,5-dimethyl-isoxazole] are at most 1 µM, at most 1 µM and below 10 µM.
The corresponding values for `Cc1cc(-c2cn(S(=O)(=O)c3ccccc3)c3cc(-c4c(C)noc4C)cnc23)[nH]n1` [P-0164, 4-[1-(benzenesulfonyl)-3-(3-methyl-1H-pyrazol-5-yl)pyrrolo[3,2-b]pyridin-6-yl]-3,5-dimethyl-isoxazole] are at most 1 µM, at most 1 µM and below 10 µM.
Consider `Cc1noc(C)c1-c1cnc2c(CCC(=O)O)cn(S(=O)(=O)c3ccccc3)c2c1` [P-0174, 3-[1-(benzenesulfonyl)-6-(3,5-dimethylisoxazol-4-yl)pyrrolo[3,2-b]pyridin-3-yl]propanoic acid], for which the values for the IC50 at BRD4-BD1 (44-164), in the experiment with MV-4-11 and in the experiment with bromodomain were 1 to 10 µM, 1 to 10 µM and below 10 µM, respectively.
Consider `Cc1noc(C)c1-c1cnc2c(c1)c(S(=O)(=O)c1ccccc1)cn2C1COC1` [P-0179, 4-[3-(benzenesulfonyl)-1-(oxetan-3-yl)pyrrolo[2,3-b]pyridin-5-yl]-3,5-dimethyl-isoxazole], for which the half-maximal inhibitory concentration (IC50) at BRD4-BD1 (44-164) is 1 to 10 µM; in the experiment on MV-4-11, 1 to 10 µM; in the experiment with bromodomain, below 10 µM.
For the compound `Cc1noc(C)c1-c1cnc2c(c1)c(Sc1ccccc1)cn2C1CCOC1` (stereo not drawn) [P-0180, 3,5-dimethyl-4-(3-phenylsulfanyl-1-tetrahydrofuran-3-yl-pyrrolo[2,3-b]pyridin-5-yl)isoxazole], the IC50 is 1 to 10 µM at BRD4-BD1 (44-164), 1 to 10 µM in the experiment on MV-4-11 and below 10 µM in the experiment with bromodomain.
Take `Cc1noc(C)c1-c1cnc2c(c1)c(S(=O)(=O)c1ccccc1)cn2C1CCOC1` (stereo not drawn) [P-0181, 4-[3-(benzenesulfonyl)-1-tetrahydrofuran-3-yl-pyrrolo[2,3-b]pyridin-5-yl]-3,5-dimethyl-isoxazole]: the IC50 at BRD4-BD1 (44-164) was 1 to 10 µM; in the experiment with MV-4-11, at most 1 µM; with bromodomain, below 10 µM.
The corresponding values for `Cc1noc(C)c1-c1cnc2c(c1)c(Sc1ccccc1)cn2C1CCOCC1` [P-0182, 3,5-dimethyl-4-(3-phenylsulfanyl-1-tetrahydropyran-4-yl-pyrrolo[2,3-b]pyridin-5-yl)isoxazole] are 1 to 10 µM, at most 1 µM and below 10 µM.
As for `Cc1noc(C)c1-c1cnc2c(c1)c(S(=O)(=O)c1ccccc1)cn2C1CCOCC1` [P-0183, 4-[3-(benzenesulfonyl)-1-tetrahydropyran-4-yl-pyrrolo[2,3-b]pyridin-5-yl]-3,5-dimethyl-isoxazole], the values for the concentration for half-maximal inhibition (IC50) on BRD4-BD1 (44-164), in the experiment on MV-4-11 and in the experiment with bromodomain were 1 to 10 µM, at most 1 µM and below 10 µM, respectively.
In the same order, the values of `Cc1nc(-c2cn(S(=O)(=O)c3ccccc3)c3cc(-c4c(C)noc4C)cnc23)cs1` [P-0191, 4-[1-(benzenesulfonyl)-3-(2-methylthiazol-4-yl)pyrrolo[3,2-b]pyridin-6-yl]-3,5-dimethyl-isoxazole] are 1 to 10 µM, at most 1 µM and below 10 µM.
The corresponding values for `[2H]C([2H])(C1CCC(F)(F)CC1)n1cc(-c2cnn(C3CC3)c2)c2ncc(-c3c(C)noc3C)cc21` [P-0220, 4-[3-(1-cyclopropylpyrazol-4-yl)-1-[dideuterio-(4,4-difluorocyclohexyl)methyl]pyrrolo[3,2-b]pyridin-6-yl]-3,5-dimethyl-isoxazole] are at most 1 µM, at most 1 µM and below 10 µM.

In general, IC50 refers to the midpoint of a concentration-inhibition curve.

For the origin of these results see patent US10501460B2, “Heterocyclic compounds and uses thereof” (Plexxikon Inc., priority 2013, dated 2019).
